The results in this text go back to patent US8835455B2, “Crystalline forms of trans-7-oxo-6-(sulphooxy)-1,6-diazabicyclo[3,2,1]octane-2-carboxamide sodium salt” (Forest Laboratories Holdings Limited, priority 2009, dated 2014).

A short description of data set [1]: Phase I study Part A, single IV dose, plasma pharmacokinetics. The class given is in vivo, healthy male and female subjects. The following applies: for AUC(0-inf) / Cmax / T1/2 / half-life: Geo mean; for Tmax: Median; for pharmacokinetic interaction between ceftaroline fosamil and NXL-104: Phase I Part A, single 600 mg IV doses alone or concomitant. The protocol:
(§1) A single center, two-part randomized Phase I Study was conducted to evaluate the safety, tolerability, and pharmacokinetics of single and multiple intravenous doses of ceftaroline fosamil and NXL-104 in healthy male and female subjects, aged 18 through 45 years.
(§2) Part A was an open-label, 3-way crossover, single-dose study to evaluate the safety, tolerability, and pharmacokinetics of ceftaroline and NXL-104 following co-administration of a single intravenous (IV) dose of ceftaroline fosamil and NXL-104 in 12 healthy subjects.
Treatment A: single dose of 600 mg ceftaroline fosamil via IV infusion over one hour.
Treatment B: single dose of 600 mg NXL-104 via IV infusion over one hour.
Treatment C: single dose of 600 mg ceftaroline fosamil and 600 mg NXL-104 via concomitant IV infusion over one hour.
Blood samples were collected at the following times to determine ceftaroline, ceftaroline fosamil, ceftaroline M-1 (metabolite of ceftaroline fosamil), and NXL-104 free-acid plasma concentrations.
Days 1 (Period I), 6 (Period II), and 11 (Period III): in each study period immediately before (within 15 minutes) the start of infusion and after the start of study drug infusion at 20, 40, 60 (immediately before the end of study-drug infusion), 65, and 75 minutes and at 1.5, 2, 3, 4, 6, 8, 12, 18, 24, 36, and 48 hours
The principal parameters describing the pharmacokinetics of ceftaroline, ceftaroline fosamil, ceftaroline M-1 (metabolite of ceftaroline fosamil), and NXL-104 were derived from plasma concentrations using noncompartmental analysis with the software program WinNonlin. Plasma concentrations below the limit of quantification were treated as zero for all PK calculations. The actual sampling times were used in the calculations of PK parameters.
The following PK parameters were determined for ceftaroline, ceftaroline ceftaroline M-1, and NXL-104 free acid: AUC0-t and area under the plasma concentration versus time curve from time zero to infinity (AUC0-∞), Cmax, time of maximum plasma concentration (Tmax), CL, volume of distribution (VA and steady-state volume of distribution (Vss). Minimum plasma concentration (Cmin), accumulation ratio (Rac), and area under the plasma concentration versus time curve during the dosing interval, τ, (AUC0-τ) will be determined following multiple-dose administration.
Because all doses of ceftaroline are expressed in terms of anhydrous, acetate-free ceftaroline fosamil (ceftaroline prodrug, molecular weight=684.68), the following corrections were made to the dose when calculating PK parameters that include doses for ceftaroline (molecular weight=604.70) and ceftaroline M-1 (molecular weight=622.72): Ceftaroline dose=0.883×ceftaroline fosamil dose Ceftaroline M-1 dose=0.909×ceftaroline fosamil dose
The Cmax of ceftaroline, ceftaroline fosamil, ceftaroline M-1, and NXL-104 free acid was determined observationally as the peak concentration for each subject. Tmax was determined as the time corresponding to Cmax.
Area under the plasma concentration versus time curve up to the time corresponding to the last measurable concentration (AUC0-t) was calculated by numeric integration using the linear trapezoidal rule as follows:
Estimates of T1/2 were calculated using the following equation: T1/2=0.693/λz
The AUC0-∞ was calculated according to the following equation: AUC0-∞=AUC0-t+Clast/λz
CL was calculated with the following equation: CL=Doseiv/AUC0-∞
Vz based on the terminal phase was determined as: Vz=Doseiv/λz×AUC0-∞
In part A, PK parameters were compared by analysis of variance using SAS version 9.1.3 on a UNIX operating system. A general linear model with sequence, subject within sequence, treatment, and period as factors was used as the basis for the analysis. […]

A short description of data set [2]: Phase I study, safety and tolerability. The class given is in vivo, healthy male and female subjects. The following applies: healthy subjects, IV. The protocol: as §1, §2
The following procedures were performed and recorded at screening: • Collect blood samples for serology testing, hematology evaluation (including CBC, prothrombin time and international normalized ratio [PT/INR], partial thromboplastin time [PTT], free hemoglobin, haptoglobin, and reticulocyte count), and comprehensive metabolic panel • Collect urine for UA (including urine microscopy) and for drugs-of-abuse screen • Perform β-HCG serum pregnancy test (female subjects only) • Calculate CrCl and BMI • Assess vital signs • Perform 12-lead ECG • Perform complete physical examination • Assess prior medications • Record medical and surgical history • Record any spontaneously reported AE or SAE between signing of informed consent and Day —1 for subjects who comply with all screening processes […]

A short description of data set [3]: Assay for NXL-104 and related substances (reverse phase gradient HPLC, UV 195 nm) on stored samples. The following applies: vial at 25° C./60% RH. The class given is physicochemical. The protocol: Assay for NXL-104 and Related Substances
NXL-104 and related substances in compositions comprising trans-7-oxo-6-(sulphooxy)-1,6-diazabicyclo[3,2,1]octane-2-carboxamide sodium salt were determined by a reverse phase gradient HPLC method with UV detection at 195 nm.
(§3) The following parameters were used for analysis:
(§4) Column: Inertsil ODS-3, 250 mm×4.6 mm, 5 μm
Mobile Phase A: 100 mM KH2PO4 Solution
Mobile Phase B: Acetonitrile: Water, [50:50 (v:v)]
(§5) Column Temperature: 25° C.
Autosampler Temperature: 5° C.
(§6) Detector/Setting: UV/195 nm
Run Time: about 25 minutes
Injector Washing Solution: Acetonitrile:Water, [10:90 (v:v)]
Approximate relative retention times (RRT) values for trans-7-oxo-6-(sulphooxy)-1,6-diazabicyclo[3,2,1]octane-2-carboxamide sodium salt and disulfate were 1.00 and 0.37.
The stability of amorphous trans-7-oxo-6-(sulphooxy)-1,6-diazabicyclo[3,2,1]octane-2-carboxamide sodium salt stored in a vial stored at 25° C. with a relative humidity of 60% (25° C./60% RH) was evaluated using the NXL-104 assay described above.
NXL-104 and related substances were measured according to the assay described in Example 6.

Data set [4] in a line: Decarbonyl degradation product of NXL-104 (reverse phase gradient HPLC, UV 195 nm). The class given is physicochemical. The following applies: vial at 25° C./60% RH. Here is the method:
The decarbonyl degradation product of trans-7-oxo-6-(sulphooxy)-1,6-diazabicyclo[3,2,1]octane-2-carboxamide sodium salt was determined by a reverse phase gradient HPLC method with UV detection at 195 nm.
as §3, §4
Mobile Phase A: Deionized Water
Mobile Phase B: 50 mM KH2PO4 solution: Acetonitrile, [50:50 (v:v)]
as §5, §6
Run Time (Approximate): 35 minutes
Injector Washing Solution: Acetonitrile:Water, [50:50 (v:v)] (Recommended)
Approximate relative retention time (RRT) for decarbonyl was 0.17.

Data set [5] in a line: pH of stability samples. The following applies: vial at 25° C./60% RH. The class given is physicochemical.
Where [6] appears, read: Treatment 600 mg Ceftaroline fosamil.
Where [7] appears, read: Treatment 600 mg NXL-104 + Ceftaroline fosamil 600 mg.
Setting [8] is: both sexes, human, plasma, iv, 600 mg, Treatment 600 mg Ceftaroline fosamil.
Setting [9] is: both sexes, human, plasma, iv, 600 mg, Treatment 600 mg Ceftaroline fosamil, read-out: AUC0-inf.
Where [10] appears, read: both sexes, human, plasma, iv, 600 mg, Treatment 600 mg Ceftaroline fosamil, read-out: Cmax.
Where [11] appears, read: both sexes, human, plasma, iv, 600 mg, Treatment 600 mg NXL-104 + Ceftaroline fosamil 600 mg.
Setting [12] is: both sexes, human, plasma, iv, 600 mg, Treatment 600 mg NXL-104 + Ceftaroline fosamil 600 mg, read-out: AUC0-inf.
Setting [13] is: both sexes, human, plasma, iv, 600 mg, Treatment 600 mg NXL-104 + Ceftaroline fosamil 600 mg, read-out: Cmax.
The mark [14] stands for this setting: both sexes, human, plasma, iv, Treatment 600 mg Ceftaroline fosamil, read-out: Tmax.

Structures are written as SMILES. Where two headings read alike, the source gives them in different places.

For `CCO/N=C(\C(=O)N[C@H](C(=O)[O-])[C@@H]1NC(C(=O)[O-])=C(Sc2nc(-c3cc[n+](C)cc3)cs2)CS1)c1nsc(N)n1.[H+]` [Ceftaroline M-1], in data set [1] (setting [6]), the AUC(0-inf) was 16420 ng·h/mL, the Cmax was 3290 ng/mL, the T1/2 was found to be 3.75 h and the Tmax was 1.08 h. Further, in data set [1] (setting [7]), the AUC(0-inf) came to 15780 ng·h/mL, the Cmax worked out at 3210 ng/mL, the T1/2 came out at 3.78 h and the Tmax was determined as 1.04 h.

In the case of `CCO/N=C(\C(=O)N[C@@H]1C(=O)N2C(C(=O)[O-])=C(Sc3nc(-c4cc[n+](C)cc4)cs3)CS[C@H]12)c1nsc(N)n1` [Ceftaroline], the half-life in data set [1] (setting [8]) is 2.51 h; in data set [1] (setting [11]) it was 2.47 h. In addition, the AUC(0-inf) is 61000 ng·h/mL in data set [1] (setting [9]) and 60000 ng·h/mL in data set [1] (setting [12]). Further, the highest concentration (Cmax) in data set [1] (setting [10]) is 24800 ng/mL; in data set [1] (setting [13]) it was 26700 ng/mL. In data set [1] (setting [14]), the time of peak concentration (Tmax) was determined as 1 h.

Take `NC(=O)[C@@H]1CC[C@@H]2CN1C(=O)N2OS(=O)(=O)[O-].[Na+]` [NXL-104, trans-7-oxo-6-(sulphooxy)-1,6-diazabicyclo[3,2,1]octane-2-carboxamide sodium salt]: in data set [2], the safety entry was “no safety concerns”. In addition, the “pharmacokinetic interaction between ceftaroline fosamil and NXL-104” value in data set [1] was “no pharmacokinetic interactions”. Besides, the half-life in data set [1] (setting [11]) was 1.63 h; in data set [1] (both sexes, human, plasma, iv, 600 mg, Treatment 600 mg NXL-104), 1.64 h. For the same compound, the AUC(0-inf) in data set [1] (setting [12]) is 51200 ng·h/mL; in data set [1] (both sexes, human, plasma, iv, 600 mg, Treatment 600 mg NXL-104, read-out: AUC0-inf) it was 51900 ng·h/mL. For the same compound, the Cmax was determined as 29100 ng/mL in data set [1] (setting [13]) and 29500 ng/mL in data set [1] (both sexes, human, plasma, iv, 600 mg, Treatment 600 mg NXL-104, read-out: Cmax). In data set [1] (both sexes, human, plasma, iv, Treatment 600 mg NXL-104, read-out: Tmax), the Tmax is 1 h.

Consider `NC(=O)[C@@H]1CC[C@@H]2CN1C(=O)N2OS(=O)(=O)[O-].[Na+]` [amorphous NXL-104, trans-7-oxo-6-(sulphooxy)-1,6-diazabicyclo[3,2,1]octane-2-carboxamide sodium salt], for which the Disulfate in data set [3] (1 month) was determined as 0.19%; in data set [3] (3 months) it was 0.17%; in data set [3] (6 months) it was 0.17%; in data set [3] (Initial) it was 0.19%. Besides, the NXL-104 % in data set [3] (1 month) turned out to be 111.3%; in data set [3] (3 months), 108.0%; in data set [3] (6 months), 106.1%; in data set [3] (Initial) it was 106.4%. Besides, the “Total Impurities, NXL-104 related” value in data set [3] (1 month) is 0.89%; in data set [3] (3 months) it was 0.92%; in data set [3] (6 months), 0.87%; in data set [3] (Initial), 0.90%. The Decarbonyl in data set [4] (1 month) stood at 0.46%; in data set [4] (3 months), 0.48%; in data set [4] (6 months), 0.33%; in data set [4] (Initial), 0.63%. Further, the pH in data set [5] (1 month) was 7.3; in data set [5] (3 months), 7.2; in data set [5] (6 months), 7.3; in data set [5] (Initial), 7.0.

Regarding `CCO/N=C(\C(=O)N[C@@H]1C(=O)N2C(C(=O)[O-])=C(Sc3nc(-c4cc[n+](C)cc4)cs3)CS[C@H]12)c1nsc(NP(=O)(O)O)n1` [ceftaroline fosamil, (6R,7R)-7-{(2Z)-2-(ethoxyimino)-2-[5-(phosphonoamino)-1,2,4-thiadiazol-3-yl]acetamido}-3-{[4-(1-methylpyridin-1-ium-4-yl)-1,3-thiazol-2-yl]sulfanyl}-8-oxo-5-thia-1-azabicyclo[4.2.0]oct-2-ene-2-carboxylate], in data set [2], the safety entry is listed as “no safety concerns”. Also, the “pharmacokinetic interaction between ceftaroline fosamil and NXL-104” value in data set [1] was “no pharmacokinetic interactions”. The half-life in data set [1] (setting [8]) was 0.084 h; in data set [1] (setting [11]) it was 0.055 h. Also, the AUC(0-inf) is 2170 ng·h/mL in data set [1] (setting [9]) and 2160 ng·h/mL in data set [1] (setting [12]). Besides, the maximum concentration (Cmax) in data set [1] (setting [10]) was found to be 2110 ng/mL; in data set [1] (setting [13]) it was 2370 ng/mL. Also, the Tmax in data set [1] (setting [14]) is 0.67 h.
